Data: PMC7156612, “Olinciguat, an Oral sGC Stimulator, Exhibits Diverse Pharmacology Across Preclinical Models of Cardiovascular, Metabolic, Renal, and Inflammatory Disease” (Frontiers in Pharmacology, 2020)
Where two headings read alike, the source gives them in different places.

Columns and labels:
[1] = test system: vascular smooth muscle cells (VSMC) from rat aorta; assay: Rat aorta vascular smooth muscle cell proliferation (3H-thymidine incorporation); format: cell-based; settings: Rattus norvegicus, VSMC
Protocol: We explored the concentration response of olinciguat, tadalafil, and olinciguat in the presence of 1 μM tadalafil on rat aorta vascular smooth muscle proliferation, Tadalafil was used because it is a once-daily PDE5 inhibitor that, like the three-times-daily PDE5 inhibitor sildenafil, is approved for treatment of PAH and ED. Vascular smooth muscle cells (VSMC) from rat aorta (Lonza, R-ASM-580) were plated into a 96-well plate at 15,000 cells per well in DMEM:F12 containing 20% FBS and GA-1000 ([Gentamicin, Amphotericin B], Lonza, CC-40863) for 24 h at 37°C. Medium was removed and cells were washed once with 100 μl DMEM:F12 before adding 100 μl of DMEM:F12 and incubating for 24 h to induce quiescence. Cells were then cultured for 24 h in DMEM:F12 supplemented with 5% FBS, in the presence of test articles (vehicle, olinciguat, tadalafil) with 10 µM DETA. In the last 6 h, 0.2 μCi of ^3H-thymidine (American Radiolabeled Chemicals, ART 0178A) was added to each well to measure DNA synthesis by thymidine incorporation. Cells were washed once with HBSS and then trypsinized and transferred into FB filter plates (Millipore, MADVNOB). A rapid-filtration technique using a filtration apparatus (Millipore, MAVM0960R) with vacuum aspiration was used to harvest and rinse labeled cells (6× with 0.2 ml of chilled water). The radioactivity bound to the filters was counted with 80 µl of liquid scintillant (PerkinElmer, UltraGold MV, 6013159) in a scintillation counter (Perkin Elmer Microbeta instrument).
In the vascular smooth muscle cell proliferation experiment, a comparison between the IC50's for olinciguat alone vs oliniciguat in the presence of 1 µM tadalafil was performed by a two-tailed t-test using Log EC50 best fit values and SEs determined from a four-parameter nonlinear curve fit, assuming n=60 degrees of freedom.

[2] = Pharmacokinetics in Sprague-Dawley rats; format: in vivo; settings: rat, plasma; for bioavailability / Cmax / Tmax / half-life: po; for bioavailability: 1 mg/kg; for Cmax / Tmax / half-life: p.o. 1 mg/kg
Protocol: Male (n=12, 2 groups of 6) and female (n=12, 2 groups of 6) Sprague-Dawley rats (275–300 g) with indwelling jugular vein cannulae were fasted overnight prior to dosing. Animals were dosed either intravenously (i.v.) via bolus injection through a percutaneous catheter into a lateral tail vein or orally (p.o.) via gavage. Olinciguat was formulated in 60% polyethylene glycol (PEG) 400/40% water at 0.3 mg/ml (0.3 mg/kg) for i.v. dosing, and at 1 mg/ml (1 mg/kg) in 100% PEG 400 for p.o. dosing. Chow was returned to animals 4 h postdose.
(§1) Blood from i.v. and p.o. dosed rats was collected at 16 timepoints (2 groups of rats, 8 timepoints per group) over 24 h. Samples were collected into potassium ethylenediamine tetraacetic acid (K2EDTA) tubes, centrifuged (3,500 rpm for 10 min) to yield plasma. In the pharmacokinetic studies and in all in vivo studies, olinciguat plasma concentrations were determined by LC-MS/MS. Pharmacokinetic (PK) parameters were calculated by noncompartmental analysis using sparse sampling in Phoenix® WinNonLin® v.6.3 (Certara, Princeton, NJ).

[3] = Plasma protein binding (equilibrium dialysis), rat; format: in vitro ADME; settings: both sexes, Sprague Dawley, 1 and 10 μM, equilibrium dialysis 18 h, no gender difference, read-out: bound to plasma proteins
Protocol: Concentrated (10 mM) DMSO stock solutions of olinciguat were diluted to 1 and 10 μM in 2.5 ml of rat (male and female Sprague Dawley) and human plasma. Concentrated [^14C]-labeled olinciguat (1 μl,1 mCi/ml stock concentration) was spiked into each sample and mixed by vortexing. Triplicate 500 μl aliquots of plasma containing [^14C]-labeled olinciguat were transferred to a Rapid Equilibrium Dialysis system and dialyzed (molecular weight cut-off ~8000 Da) against 500 μl of phosphate-buffered saline (PBS) at room temperature for 18 h. Radioactivity of [^14C]-labeled olinciguat in PBS and plasma samples was measured using liquid scintillation counting.

[4] = Mass balance/excretion of [14C]-olinciguat in rats; format: in vivo, rat; settings: male Sprague-Dawley rats, single oral dose 3 mg/kg; for equivalents excreted in the feces, percent of administered dose: 3 mg/kg
Protocol: [^14C]-olinciguat, uniformly labeled with [^14C] in the fluorobenzyl ring and having a specific activity of 110 mCi/mmol, was synthesized at American Radiolabeled Chemicals, Inc. (St. Louis, MO). The radiochemical purity was determined to be >99%. Four male Sprague-Dawley rats (approximately 8 weeks old) received a single p.o. dose of 3 mg/kg [^14C]-olinciguat (specific activity 26.6 µCi/mg) in PEG 400:water 60:40 v/v (dosing volume ≤5 ml/kg). Using a single metabolism cage (Nalgene) for each rat, urine and feces were collected for 7 days at 24-h intervals, and cages were rinsed daily. Food was available ad libitum throughout the study, except for the overnight fasting period (16–18 h) before and 4 h after olinciguat administration. Deionized water was available ad libitum. After 7 days, tissues were collected. Urine, feces, liver, kidneys, and cage washes were analyzed to determine material balance.

[5] = Olinciguat plasma concentration in hemodynamic study (pooled Wistar and SHR); format: in vivo, rat; settings: for concentration at 1 h: male, Wistar and SHR (spontaneously hypertensive rat), pooled, rat, plasma, oral, mean and SEM of 6 animals (n=3 Wistar, n=3 SHR), read-out: average plasma concentration 1 h after dosing on Day 4
Protocol: as §1
Spontaneously hypertensive rats (SHRs) (n=6, male, 230–250 g, 14 weeks of age) and Wistar rats (n=6, male, 230–250 g, 12 weeks of age) were implanted with telemetry transmitters as described above. Olinciguat was formulated as a suspension in a vehicle containing 0.5% methylcellulose and 0.2% Tween. Rats were p.o. dosed with a dosing volume of 5 ml/kg. In a weekly-dose escalation design, rats were administered vehicle (week 1), olinciguat 1 mg/kg (week 2), 3 mg/kg (week 3), and 10 mg/kg (week 4). For each dose level, rats were dosed once daily (QD) for 4 days. Using plasma from tail vein, olinciguat plasma concentrations were determined at 1, 6, and 24 h post-dose on day 4 and reported as the mean from Wistar (n=3) and SHR (n=3). Hemodynamics were recorded hourly during a 24-h baseline period and over the first 3 days of dosing.

## NC(=O)[C@](O)(CNc1nc(-c2cc(-c3ccon3)n(Cc3ccccc3F)n2)ncc1F)C(F)(F)F [olinciguat, (R)-3,3,3-trifluoro-2-(((5-fluoro-2-(1-(2-fluorobenzyl)-5-(isoxazol-3-yl)-1H-pyrazol-3-yl)pyrimidin-4-yl)amino)methyl)-2-hydroxypropanamide]
[1]; 5% FBS, 10 µM DETA, 3H-thymidine incorporation, 95% CI 22.4 to 39 nM, read-out: IC50, VSMC proliferation, olinciguat alone
  IC50: 29.6 nM
[1]; Table 2 summary, olinciguat alone, read-out: Rat vascular smooth muscle proliferation EC50, olinciguat concentration (range = 95% CI)
  EC50: 22.4 to 39 nM
[2]; both sexes, Sprague-Dawley, intravenous, 0.3 mg/kg, male and female rats, mean, read-out: mean pharmacokinetic volume of distribution
  Vd: 1 L/kg
[2]; both sexes, Sprague-Dawley, rats, sexes not separated (discussion), read-out: oral bioavailability (rats, overall)
  bioavailability: 40%
[2]; iv, female Sprague Dawley rats, i.v. 0.3 mg/kg
  clearance: 5.6 mL/min/kg
[2]; iv, female Sprague Dawley rats, i.v. 0.3 mg/kg, read-out: Vss
  Vd: 0.9 L/kg
[2]; iv, male Sprague Dawley rats, i.v. 0.3 mg/kg
  clearance: 11.3 mL/min/kg
[2]; iv, male Sprague Dawley rats, i.v. 0.3 mg/kg, read-out: Vss
  Vd: 1.1 L/kg
[2]; female Sprague Dawley rats, read-out: Oral bioavailability
  bioavailability: 45%
[2]; male Sprague Dawley rats, read-out: Oral bioavailability
  bioavailability: 36%
[2]; female Sprague Dawley rats
  Cmax: 198 ng/mL
  Tmax: 3 h
  half-life: 3.9 h
[2]; male Sprague Dawley rats
  Cmax: 96.4 ng/mL
  Tmax: 1 h
  half-life: 3.5 h
[3]
  fraction unbound at 18 h: 0.01
[4]
  administered dose radioactivity recovered in feces and urine within the first 48 h: 95%
[4]; over 7 days
  equivalents excreted in the urine, percent of administered dose: 5.7%
  equivalents excreted in the feces, percent of administered dose: > 95%
[4]; over 7 days, listed as [^14C]-olinciguat
  equivalents excreted in the feces, percent of administered dose: 95.3%
[5]; 10 mg/kg, pooled samples from Wistar and SHR, total plasma concentration x 1.0% free
  Olinciguat concentration (free): 1.6–3.3 nM^a,e
[5]; 1 mg/kg p.o. QD
  concentration at 1 h: 57.3 ± 38.7 nM
[5]; 3 mg/kg p.o. QD
  concentration at 1 h: 132 ± 30 nM
[5]; 10 mg/kg p.o. QD
  concentration at 1 h: 245 ± 86 nM
